Experiments:
AsqJ [1] = target: T1, AsqJ (Aspergillus nidulans, UniProt Q5AR53); test: EPR titration of Mn2+-loaded AsqJ; format: binding
AsqJ [2] = target: T1, AsqJ; test: X-ray crystal structure; format: binding; settings: Fe, 2OG; formed in crystal from 1-H with 1 mM ascorbate and O2, 1.63 Å

T1 sequence (Q5AR53 109-416): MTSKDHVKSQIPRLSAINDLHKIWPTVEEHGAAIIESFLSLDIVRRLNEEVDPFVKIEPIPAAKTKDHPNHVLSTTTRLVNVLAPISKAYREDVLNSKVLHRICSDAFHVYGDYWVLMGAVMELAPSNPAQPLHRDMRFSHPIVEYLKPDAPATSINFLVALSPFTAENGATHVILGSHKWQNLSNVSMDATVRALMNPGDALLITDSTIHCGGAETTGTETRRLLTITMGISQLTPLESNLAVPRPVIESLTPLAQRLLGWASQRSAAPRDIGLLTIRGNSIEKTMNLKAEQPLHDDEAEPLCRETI

Row | Kd (AsqJ [1]) [µM] | SMILES | X-ray crystal structure (AsqJ [2])
1 | ~5 | CN1C(=O)c2ccccc2NC(=O)/C1=C/c1ccc(C(F)(F)F)cc1 [2-CF3] | –
2 | – | CN1C(=O)c2ccccc2NC(=O)[C@@]12O[C@H]2c1ccccc1 [3-H, cyclopenin] | revealed the presence of 3-H, and 2OG in the active site
